Experiment: Inhibition of Tau P301L mutant-mediated cytotoxicity in human M17 cells by LDH assay
Assay type: cell-based

Row | SMILES | EC50
1 | O=C(NCCc1c[nH]c2ccc(Cl)cc12)c1cccc(Cc2ccccc2)c1 | 78 nM
2 | O=C(NCCc1c[nH]c2ccc(F)cc12)c1ccc(Cn2ccnc2)cc1 | 486 nM
3 | O=C(NCCc1c[nH]c2ccc(Cl)cc12)c1cccc(Nc2ccccc2)c1 | 94 nM
4 | N#Cc1ccc(Cc2ccc(C(=O)NCCc3c[nH]c4ccc(Cl)cc34)cc2)cc1 | 16 nM
5 | N#Cc1cccc(Cc2ccc(C(=O)NCCc3c[nH]c4ccc(Cl)cc34)cc2)c1 | 14 nM
6 | O=C(NCCc1c[nH]c2ccc(Cl)cc12)c1ccc(Cc2cccc(Cl)c2)cc1 | 7 nM
7 | O=C(NCCc1c[nH]c2ccc(Cl)cc12)c1ccc(Cc2cccc(F)c2)cc1 | 13 nM
8 | COc1ccc(Cc2ccc(C(=O)NCCc3c[nH]c4ccc(Cl)cc34)cc2)cc1 | 147 nM
9 | O=C(NCCc1c[nH]c2ccc(Cl)cc12)c1cccc(Cc2cncc(F)c2)c1 | 90 nM

Reference: ChEMBL document CHEMBL2150879, “Novel indolethylbenzamides for the treatment of tauopathies: patent highlight” (ACS Med Chem Lett, 2012)
